Measured values taken from patent US5336684A, “Oxidation products of cephalomannine” (Hauser Chemical Research, Inc., priority 1993, dated 1994).
In brackets after ≈: the same amount, converted by molar mass. Several values for one entry are separate records, joined by “and”; a condition that tells them apart may be missing. Identical values can stand only once. Like-named read-outs stand apart in the source and are kept apart here.

Legend:
B16 Melanoma cells = assay: cells; format: cell-based; settings: for IC50: Mus musculus; for B16 Proliferation ED50/ED50 Taxol: ratio to taxol, <1 indicates greater activity than taxol
From the text: (§1) Tubulin binding and cytotoxicity data for cephalomannine and the synthetic derivatives described herein are included for comparison. The tubulin testing was done exactly as described by Himes (Georg, G. I., et al., "Synthesis of Biologically Active Taxol Analogues with Modified Phenylisoserine Side Chains", J. Med. Chem. Vol 35:4230, (1992)), incorporated herein by reference. Taxol has been included in Table 1 for reference. […] A number less than 1 in these columns indicates greater activity than taxol. A number greater than 1 in these columns indicates lower activity than taxol. The error in the tests appears to be ±10-20%. […] These tests have been used and relied upon by experimentalists in this field to determine the potential efficacy of a taxol derivative for the treatment of cancer.
Cells were seeded in 24-well plates at 7.5×10^4 cells/well and grown in Dulbecco's modified minimal essential medium (MEM) containing 10% bovine calf serum at 37° C. for 24 hours in a 97% humidified atmosphere of 5.5% CO2. The medium was then replaced with fresh medium containing taxol or its derivatives and dissolved in DMSO in concentrations ranging from 7.5×10^-9 M to 1×10^-7 M for taxol and other derivatives. The final concentration of DMSO in the cell medium was 0.5% or less. […] After 40 hours, the cells were released by trypsinization and counted in a Coulter counter.
^c B16 Melanoma cells were incubated with various concentrations of
the compounds for about 40h at 37° C.
^e The concentration in ng/ml which reduces the number of cells by 50

Tubulin [1] = assay: Tubulin Assembly; format: biochemical, bovine; settings: for Tubulin Assembly ED50/ED50 Taxol: ratio to taxol, <1 indicates greater activity than taxol; for Tubulin Assembly ED50 (concentration which reduces the supernatant protein concentration by 50%): tubulin 1 mg/ml, 37° C., 15 minutes, PEM buffer pH 6.9
From the text: as §1
Tubulin free of microtubule-associated proteins was purified from bovine brain as previously described (Algaier, J., Himes, R. H., "The Effect of Dimethyl Sulfoxide on the Kinetics of Tubulin Assembly" Biochim. Biophys. Acta, Vol 954, pp 235-243, 1988). The assembly reaction was done at 37° C. in PEM buffer (0.1M Pipes, pH 6.9, 1 mM EGTA, and 1 mM MgSO4) at a protein concentration of 1 mg/ml (10 μM) in the presence of taxol or taxol analogues and 0.5 mM GTP. The reaction was monitored by the increase in the apparent absorbance at 350 nm.
^b Tubulin at 1 mg/ml was incubated with various concentrations of th
compounds at 37° C. for 15 minutes in 0.5 ml of PEM buffer (0.1 M
Pipes, 1 mM EGTA, 1 mM MgSO4, pH 6.9). Samples were centrifuged and
the protein concentration on the supernatant was determined.
^d The concentration in ng/ml which reduces the supernatant protein

cell = settings: when delivered to the cell; cited from earlier work
tubulin [2] = settings: Schiff et al. 1979; cited from earlier work
[3] = system: P388 murine leukemia cells; settings: compared with taxol; cited from earlier work
tubulin [4] = settings: compared with taxol, cited from earlier work
[5] = system: taxol resistant tumor cells; settings: compared with taxol; cited from earlier work
[6] = system: mouse macrophage-like J774.2 cells; settings: compared with taxol; cited from earlier work
[7] = B16, 40 h, B16 melanoma cells, about 40h at 37° C., read-out: B16 Proliferation ED50 (concentration which reduces the number of cells by 50% compared to a control)

| SMILES | IC50 (B16 Melanoma cells; [7]) | B16 Proliferation ED50/ED50 Taxol (B16 Melanoma cells) | Tubulin Assembly ED50/ED50 Taxol (Tubulin [1]) | Tubulin Assembly ED50 (concentration which reduces the supernatant protein concentration by 50%) (Tubulin [1]) | further results |
| --- | --- | --- | --- | --- | --- |
| CC[Si](CC)(CC)O[C@H]1C[C@H]2OC[C@@]2(OC(C)=O)[C@H]2[C@H](OC(=O)c3ccccc3)[C@]3(O)C[C@H](OC(=O)[C@H](O[Si](CC)(CC)CC)[C@@H](NC(=O)C(C)=O)c4ccccc4)C(C)=C([C@@H](OC(C)=O)C(=O)[C@]12C)C3(C)C [Compound 7, 2',7-Bis(triethylsilyl)-α-ketoamide] | > 8.54 µg/mL | > 380 | > 10 | > 8.54 µg/mL |  |
| CC(=O)O[C@H]1C(=O)[C@@]2(C)[C@H]([C@H](OC(=O)c3ccccc3)[C@]3(O)C[C@H](OC(=O)[C@H](O)[C@@H](NC(=O)C(C)=O)c4ccccc4)C(C)=C1C3(C)C)[C@]1(OC(C)=O)CO[C@@H]1C[C@@H]2O [Compound 4ab] | 0.0171 µg/mL (≈ 0.0209 µM) | 0.75 | 1.46 | 1.24 µg/mL | activity in the B16 Proliferation test relative to taxol (B16 Melanoma cells; compared to taxol): comparable to or superior to taxol; cytotoxicity activity (B16 Melanoma cells; in vitro testing): good; activity in the in vitro tubulin assembly test relative to taxol (Tubulin [1]; compared to taxol): comparable to or superior to taxol; tubulin binding activity (Tubulin [1]; in vitro testing): good |
| CC(=O)O[C@H]1C(=O)[C@@]2(C)[C@H]([C@H](OC(=O)c3ccccc3)[C@]3(O)C[C@H](OC(=O)[C@H](O)[C@@H](NC(=O)c4ccccc4)c4ccccc4)C(C)=C1C3(C)C)[C@]1(OC(C)=O)CO[C@@H]1C[C@@H]2O [Compound 1, taxol, reference compound] | 0.0214 µg/mL (≈ 0.0251 µM) | 0.95 | 1.26 |  | cytotoxic activity (cell): cytotoxic activity; tubulin binding (tubulin [2]): significant tubulin binding; IC50 (B16 Melanoma cells; B16, 40 h, taxol reference value for the ratios (footnotes g, h, i), read-out: ED50 for taxol in the B16 assay): 0.0225 µg/mL; ED50 for taxol in the B16 assay (B16 Melanoma cells; taxol reference value for the ratios (footnotes g, h, i), 2400 min): 0.0227 µg/mL; Tubulin Assembly ED50/ED50 Taxol (Tubulin [1]; listed as taxol): approximately 1; ED50 for taxol in the assembly assay (Tubulin [1]; taxol reference value for the ratios (footnotes g, h, i), 15 min): 0.854 µg/mL and 0.97 µg/mL and 0.85 µg/mL |
| CC(=O)O[C@@]12CO[C@@H]1C[C@H](O)[C@@]1(C)C(=O)[C@H](O)C3=C(C)[C@@H](OC(=O)[C@H](O)[C@@H](NC(=O)OC(C)(C)C)c4ccccc4)C[C@@](O)([C@@H](OC(=O)c4ccccc4)[C@H]21)C3(C)C [Compound 2, taxotere] |  |  |  |  | potency as an inhibitor of replication vs taxol, P388 cells [3]: 1.5 fold; activity as a promoter of tubulin polymerization vs taxol (tubulin [4]): slightly more active; in vitro tubulin binding activity of taxotere (tubulin [4]; in vitro): enhanced in vitro tubulin binding activity; potency in taxol resistant tumor cells vs taxol [5]: at least fivefold more potent; potency as an inhibitor of replication vs taxol, J774.2 cells [6]: 1.5 fold |
| C/C=C(\C)C(=O)N[C@@H](c1ccccc1)[C@@H](O)C(=O)O[C@H]1C[C@@]2(O)[C@@H](OC(=O)c3ccccc3)[C@@H]3[C@]4(OC(C)=O)CO[C@@H]4C[C@H](O)[C@@]3(C)C(=O)[C@H](OC(C)=O)C(=C1C)C2(C)C [Compound 3, cephalomannine] |  | 1.49 | 0.82 |  | IC50 (B16 Melanoma cells; B16, 40 h, read-out: B16 Proliferation ED50 (concentration which reduces the number of cells by 50% compared to a control)): 0.0335 µg/mL (≈ 0.0403 µM) |
| CC(=O)O[C@H]1C(=O)[C@@]2(C)[C@H]([C@H](OC(=O)c3ccccc3)[C@]3(O)C[C@H](OC(=O)[C@H](O)[C@@H](NC(=O)C(C)(O)C(C)O)c4ccccc4)C(C)=C1C3(C)C)[C@]1(OC(C)=O)CO[C@@H]1C[C@@H]2O (some centres unmarked) [Compound 8, Cephalomannine diol] | > 0.854 µg/mL | > 38 | 3.4 | 3.3 µg/mL |  |
| CC(=O)O[C@H]1C(=O)[C@]2(C)[C@@H](OC(C)=O)C[C@H]3OC[C@@]3(OC(C)=O)[C@H]2[C@H](OC(=O)c2ccccc2)[C@]2(O)C[C@H](OC(=O)[C@H](OC(C)=O)[C@@H](NC(=O)C(C)=O)c3ccccc3)C(C)=C1C2(C)C [Compound 6, 2',7-bis(acetyl)-α-ketoamide] | > 0.854 µg/mL | > 38 | > 10 | > 8.54 µg/mL |  |
| CC(=O)O[C@H]1C(=O)[C@@]2(C)[C@H]([C@H](OC(=O)c3ccccc3)[C@]3(O)C[C@H](OC(=O)[C@H](OC(C)=O)[C@@H](NC(=O)C(C)=O)c4ccccc4)C(C)=C1C3(C)C)[C@]1(OC(C)=O)CO[C@@H]1C[C@@H]2O [Compound 5, 240 -Acetyl-α-ketoamide] |  | > 38 | > 10 | > 8.54 µg/mL | IC50 (B16 Melanoma cells; B16 melanoma cells, about 40h at 37° C., read-out: B16 Proliferation ED50 (concentration which reduces the number of cells by 50% compared to a control)): > 0.854 µg/mL |
